Data taken from PubChem BioAssay (NCI).
Several values for one entry are separate records, joined by “and”; a condition that tells them apart may be missing. Equal entries are not always repeated.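 Results reflect a 48-hour exposure of cells in 96-well plates to compound at five concentrations. GI50 is the concentration that inhibits growth by half. TGI: concentration producing complete growth inhibition.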

Each compound was assayed on SF-268 CNS (assay: inhibition of tumour cell growth, NCI panel, 48 h).

SMILES	GI50	TGI
N#CC(C(=O)C(=O)Nc1c(Cl)cccc1Cl)c1ccccc1 (stereo not given)	> 100 µM	> 100 µM
O=C1NC(=O)c2c1n(Cc1ccccc1)c(=O)n2Cc1ccccc1	–	> 100 µM
Cc1nc(N)nc(CCC(=O)Nc2cccc(C(F)(F)F)c2)c1-c1ccc(Cl)cc1	–	> 100 µM
COc1cc([C@@H]2c3cc4c(cc3[C@@H](NC(=O)c3ccc(C#N)cc3)C3COC(=O)[C@@H]32)OCO4)cc(OC)c1O (stereo not given in full)	–	16.9 µM
COc1cc2oc(-c3ccc(O)cc3)cc(=O)c2c(O)c1C1OC(CO)C(O)C(O)C1O (stereo not given)	–	> 100 µM
Cc1nn(-c2ccc(Cl)cc2)c2ncnc(N/N=C/c3ccccc3O)c12	0.401 µM and 0.312 µM	15.9 µM and > 37.3 µM
COc1ccc(OC)c(/C=C/c2nc(=S)n(-c3ccc(Cl)cc3)[nH]2)c1	17.5 µM	> 100 µM
COc1ccc2c(c1)C(=O)c1c-2c(Nc2ccccc2OC)nc2ccccc12	> 100 µM	> 100 µM
COc1ccc2c(N)ncc(C#Cc3cc(C(=O)Nc4ccc(CN5CCN(C)CC5)c(C(F)(F)F)c4)cnc3C)c2c1	1.21 µM	4.78 µM
COc1cc2c(N3CCN(C(=O)Nc4ccc(OC(C)C)cc4)CC3)ncnc2cc1OCCCN1CCCCC1	16.2 µM	38.6 µM
c1ccc(-c2[nH]ncc2-c2ccnc(-c3ccc(OCCn4ccnc4)cc3)c2)nc1	> 25 µM	> 25 µM
O=C1c2cccc(Oc3ccccc3)c2C(=O)c2cccc(Oc3ccccc3)c21	39.8 µM	> 100 µM
O=C(OCc1ccc2c(Br)cc(Br)c(O)c2n1)c1cc2ccccc2[nH]1	1.44 µM	2.91 µM
CC(C)(CO)CNC(=O)c1ccc2[nH]c(O)c(N=Nc3ccc(S(N)(=O)=O)cc3)c2c1	> 25 µM	> 25 µM
Cc1cc(O)c2c(c1)C(=O)C=CC2=O	–	48.3 µM and 31.5 µM
CC1(C)N=C(N)N=C(N)N1c1ccc(CCC(=O)Nc2ccc(S(=O)(=O)F)cc2)cc1	1.31 µM	> 100 µM
N#CC1(c2ccc(NC(=O)c3cccnc3NCc3ccncc3)cc2)CCCC1	27 µM	> 100 µM
CCN1C(=S)N(CC)C2C1NC(=S)N2/N=C/C=C/c1ccccc1OC (stereo not given)	0.913 µM	44.8 µM
Cn1nccc1Nc1nccc(-c2ccn([C@H](CO)c3ccc(Cl)c(F)c3)c(=O)c2)n1	38.1 µM	> 100 µM
CCOC(=O)c1nc(C)oc1C(F)(F)F	–	> 100 µM
O=C(Nc1cccc(-n2cc(-c3ccncc3)c(-c3cc(O)cc(Cl)c3)n2)c1)c1ccc(N2CCOCC2)c(C(F)(F)F)c1	8.51 µM	> 100 µM
N#CC1c2ccccc2C=CN1C(=O)CCCl (stereo not given)	15.2 µM	30.9 µM
O=C1NC(=N[C@@H](CO)c2ccccc2)S/C1=C\c1ccc2ncccc2c1	14.1 µM	> 25 µM
O=C1/C(=C/c2ccc(Cl)c(Cl)c2)CN(C(=O)CCN2CCC(=NO)CC2)C/C1=C\c1ccc(Cl)c(Cl)c1	1.06 µM	2.88 µM
CCNc1nc(O)c(/C=C2\C=Nc3ncccc32)s1	2.3 µM	7.85 µM
COc1nc2c(c(O)c(C)c(=O)n2OC2OCC(OC(C)=O)C(OC(C)=O)C2OC(C)=O)c(=O)n1C (stereo not given)	–	> 100 µM
O=C(/C=C/C12c3ccccc3C(c3ccccc31)C1C(=O)NC(=O)C12)c1ccccn1 (stereo not given)	1.61 µM	4.35 µM
O=C(NC1C(=O)NNC1c1cccc([N+](=O)[O-])c1)c1ccccc1 (stereo not given)	–	> 100 µM
O=C1CC(c2ccccc2)Oc2ccccc21 (stereo not given)	–	> 100 µM

The compounds below were run on SK-MEL-5 melanoma (assay: inhibition of tumour cell growth, NCI panel, 48 h).

SMILES	TGI	GI50
Cc1nc2ccccc2nc1CC(=O)C(=O)Nc1ccc(Cl)cc1Cl	> 100 µM	–
O=C1NC2=C(CCCCC/C2=N\O)C12CCCCCC2	> 100 µM	–
CCc1cccc(C)c1NC(=O)CCc1nc(=S)[nH][nH]1	> 100 µM	–
N#C/C(=C\c1cc(OCc2ccccc2)c(OCc2ccccc2)cn1)C(N)=O	> 100 µM	–
N#CC(C(=O)C(=O)Nc1c(Cl)cccc1Cl)c1ccccc1 (stereo not given)	> 100 µM	> 100 µM
O=C1NC(=O)c2c1n(Cc1ccccc1)c(=O)n2Cc1ccccc1	> 100 µM	–
Cc1nc(N)nc(CCC(=O)Nc2cccc(C(F)(F)F)c2)c1-c1ccc(Cl)cc1	> 100 µM	–
COc1cc2oc(-c3ccc(O)cc3)cc(=O)c2c(O)c1C1OC(CO)C(O)C(O)C1O (stereo not given)	> 100 µM	–
Cc1nn(-c2ccc(Cl)cc2)c2ncnc(N/N=C/c3ccccc3O)c12	2.45 µM and 1.47 µM	0.728 µM and 0.509 µM
COc1ccc(OC)c(/C=C/c2nc(=S)n(-c3ccc(Cl)cc3)[nH]2)c1	> 100 µM	3.58 µM
COc1ccc2c(c1)C(=O)c1c-2c(Nc2ccccc2OC)nc2ccccc12	> 100 µM	> 100 µM
COc1ccc2c(N)ncc(C#Cc3cc(C(=O)Nc4ccc(CN5CCN(C)CC5)c(C(F)(F)F)c4)cnc3C)c2c1	5.32 µM	1.86 µM
COc1cc2c(N3CCN(C(=O)Nc4ccc(OC(C)C)cc4)CC3)ncnc2cc1OCCCN1CCCCC1	26 µM	13.2 µM
c1ccc(-c2[nH]ncc2-c2ccnc(-c3ccc(OCCn4ccnc4)cc3)c2)nc1	> 25 µM	8.1 µM
O=C1c2cccc(Oc3ccccc3)c2C(=O)c2cccc(Oc3ccccc3)c21	> 100 µM	> 100 µM
O=C(OCc1ccc2c(Br)cc(Br)c(O)c2n1)c1cc2ccccc2[nH]1	2.99 µM	1.61 µM

SMILES	TGI	GI50
CC(C)(CO)CNC(=O)c1ccc2[nH]c(O)c(N=Nc3ccc(S(N)(=O)=O)cc3)c2c1	> 25 µM	> 25 µM
Cc1cc(O)c2c(c1)C(=O)C=CC2=O	22.4 µM and 6.77 µM	7.53 µM and 2.27 µM
CC1(C)N=C(N)N=C(N)N1c1ccc(CCC(=O)Nc2ccc(S(=O)(=O)F)cc2)cc1	57 µM	0.774 µM
N#CC1(c2ccc(NC(=O)c3cccnc3NCc3ccncc3)cc2)CCCC1	18 µM	4.96 µM
CCN1C(=S)N(CC)C2C1NC(=S)N2/N=C/C=C/c1ccccc1OC (stereo not given)	3.53 µM	0.137 µM
Cn1nccc1Nc1nccc(-c2ccn([C@H](CO)c3ccc(Cl)c(F)c3)c(=O)c2)n1	43.3 µM	12.5 µM
O=C(Nc1cccc(-n2cc(-c3ccncc3)c(-c3cc(O)cc(Cl)c3)n2)c1)c1ccc(N2CCOCC2)c(C(F)(F)F)c1	8.49 µM	2.33 µM
N#CC1c2ccccc2C=CN1C(=O)CCCl (stereo not given)	30.6 µM	16.6 µM
O=C1NC(=N[C@@H](CO)c2ccccc2)S/C1=C\c1ccc2ncccc2c1	> 25 µM	9.14 µM
O=C1/C(=C/c2ccc(Cl)c(Cl)c2)CN(C(=O)CCN2CCC(=NO)CC2)C/C1=C\c1ccc(Cl)c(Cl)c1	3 µM	1.58 µM
CCNc1nc(O)c(/C=C2\C=Nc3ncccc32)s1	9.47 µM	3 µM
COc1nc2c(c(O)c(C)c(=O)n2OC2OCC(OC(C)=O)C(OC(C)=O)C2OC(C)=O)c(=O)n1C (stereo not given)	> 100 µM	–
O=C(/C=C/C12c3ccccc3C(c3ccccc31)C1C(=O)NC(=O)C12)c1ccccn1 (stereo not given)	3.2 µM	1.7 µM
O=C(NC1C(=O)NNC1c1cccc([N+](=O)[O-])c1)c1ccccc1 (stereo not given)	> 100 µM	–
O=C1CC(c2ccccc2)Oc2ccccc21 (stereo not given)	65.8 µM	–

Each compound was assayed on XF 498 CNS (assay: inhibition of tumour cell growth, NCI panel, 48 h).

SMILES	TGI
O=C1NC2=C(CCCCC/C2=N\O)C12CCCCCC2	> 100 µM
CCc1cccc(C)c1NC(=O)CCc1nc(=S)[nH][nH]1	> 100 µM
N#C/C(=C\c1cc(OCc2ccccc2)c(OCc2ccccc2)cn1)C(N)=O	> 100 µM
N#CC(C(=O)C(=O)Nc1c(Cl)cccc1Cl)c1ccccc1 (stereo not given)	> 100 µM
Cc1nc(N)nc(CCC(=O)Nc2cccc(C(F)(F)F)c2)c1-c1ccc(Cl)cc1	> 100 µM
COc1cc2oc(-c3ccc(O)cc3)cc(=O)c2c(O)c1C1OC(CO)C(O)C(O)C1O (stereo not given)	> 100 µM
CCOC(=O)c1nc(C)oc1C(F)(F)F	> 100 µM
COc1nc2c(c(O)c(C)c(=O)n2OC2OCC(OC(C)=O)C(OC(C)=O)C2OC(C)=O)c(=O)n1C (stereo not given)	> 100 µM
O=C(NC1C(=O)NNC1c1cccc([N+](=O)[O-])c1)c1ccccc1 (stereo not given)	> 100 µM
